pEC50, pIC50: −log10 of the molar value. Square brackets hold non-standard residues; d marks the D form. Ends that are not written are not given here. pY = N[C@@H](Cc1ccc(OP(=O)(O)O)cc1)C(=O)O
Assays:
[1] = target: T1, C215S PTP1B (Homo sapiens, UniProt P18031, C215S); experiment: Inhibition of fluorescent EGF receptor peptide binding to CS substrate binding mutant (FP); conditions: Table 3; fluorescein-labeled EGF receptor peptide
T1 construct: PTP1B proteins (wild type and mutant forms) comprising amino acids 1-321 were expressed in E. coli; made in house; host or cells: E. coli
T1 sequence (P18031 1-321 C215S): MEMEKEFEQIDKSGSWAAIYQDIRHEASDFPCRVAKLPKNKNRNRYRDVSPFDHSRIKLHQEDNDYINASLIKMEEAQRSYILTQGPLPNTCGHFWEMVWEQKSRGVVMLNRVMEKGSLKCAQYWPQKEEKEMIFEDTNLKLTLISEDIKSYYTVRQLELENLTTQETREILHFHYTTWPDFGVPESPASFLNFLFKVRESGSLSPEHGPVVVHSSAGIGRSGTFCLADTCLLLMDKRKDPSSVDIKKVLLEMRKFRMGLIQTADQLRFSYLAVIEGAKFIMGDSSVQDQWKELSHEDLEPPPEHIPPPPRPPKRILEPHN
Protocol: (§1) To the test agents was added 40 μl of 3 nM CS or DA binding mutant of PTP1B in Assay Buffer. Plates were shaken for 30 sec to mix the two solutions. After another 12.5 minutes 40 μl of 3 nM fluorescein-labeled EGF receptor peptide was added and the solutions mixed for 30 sec. After 12.5 minutes of incubation the plates were read as described in Example 3.

[2] = target: T2, D181A PTP1B (Homo sapiens, UniProt P18031, D181A); experiment: Inhibition of fluorescent EGF receptor peptide binding to DA substrate binding mutant (FP); conditions: Table 3; fluorescein-labeled EGF receptor peptide; read-out: D181A IC50
T2 construct: PTP1B proteins (wild type and mutant forms) comprising amino acids 1-321 were expressed in E. coli; made in house; host or cells: E. coli
T2 sequence (P18031 1-321 D181A): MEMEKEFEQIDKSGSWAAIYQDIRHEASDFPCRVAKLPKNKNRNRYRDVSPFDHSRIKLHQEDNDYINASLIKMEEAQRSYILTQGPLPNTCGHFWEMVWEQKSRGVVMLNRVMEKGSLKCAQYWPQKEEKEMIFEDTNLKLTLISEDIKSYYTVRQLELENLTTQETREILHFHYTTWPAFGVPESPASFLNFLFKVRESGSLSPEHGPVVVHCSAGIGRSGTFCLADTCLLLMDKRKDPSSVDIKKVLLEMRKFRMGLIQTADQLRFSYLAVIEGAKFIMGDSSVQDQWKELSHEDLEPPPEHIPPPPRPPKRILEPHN
Protocol: as §1

[3] = target: LAR (Homo sapiens, UniProt P10586); conditions: insulin receptor 1142-1152 peptide, pTyr1146; cited from earlier work
Chain of LAR (P10586 30-1907, species assumed): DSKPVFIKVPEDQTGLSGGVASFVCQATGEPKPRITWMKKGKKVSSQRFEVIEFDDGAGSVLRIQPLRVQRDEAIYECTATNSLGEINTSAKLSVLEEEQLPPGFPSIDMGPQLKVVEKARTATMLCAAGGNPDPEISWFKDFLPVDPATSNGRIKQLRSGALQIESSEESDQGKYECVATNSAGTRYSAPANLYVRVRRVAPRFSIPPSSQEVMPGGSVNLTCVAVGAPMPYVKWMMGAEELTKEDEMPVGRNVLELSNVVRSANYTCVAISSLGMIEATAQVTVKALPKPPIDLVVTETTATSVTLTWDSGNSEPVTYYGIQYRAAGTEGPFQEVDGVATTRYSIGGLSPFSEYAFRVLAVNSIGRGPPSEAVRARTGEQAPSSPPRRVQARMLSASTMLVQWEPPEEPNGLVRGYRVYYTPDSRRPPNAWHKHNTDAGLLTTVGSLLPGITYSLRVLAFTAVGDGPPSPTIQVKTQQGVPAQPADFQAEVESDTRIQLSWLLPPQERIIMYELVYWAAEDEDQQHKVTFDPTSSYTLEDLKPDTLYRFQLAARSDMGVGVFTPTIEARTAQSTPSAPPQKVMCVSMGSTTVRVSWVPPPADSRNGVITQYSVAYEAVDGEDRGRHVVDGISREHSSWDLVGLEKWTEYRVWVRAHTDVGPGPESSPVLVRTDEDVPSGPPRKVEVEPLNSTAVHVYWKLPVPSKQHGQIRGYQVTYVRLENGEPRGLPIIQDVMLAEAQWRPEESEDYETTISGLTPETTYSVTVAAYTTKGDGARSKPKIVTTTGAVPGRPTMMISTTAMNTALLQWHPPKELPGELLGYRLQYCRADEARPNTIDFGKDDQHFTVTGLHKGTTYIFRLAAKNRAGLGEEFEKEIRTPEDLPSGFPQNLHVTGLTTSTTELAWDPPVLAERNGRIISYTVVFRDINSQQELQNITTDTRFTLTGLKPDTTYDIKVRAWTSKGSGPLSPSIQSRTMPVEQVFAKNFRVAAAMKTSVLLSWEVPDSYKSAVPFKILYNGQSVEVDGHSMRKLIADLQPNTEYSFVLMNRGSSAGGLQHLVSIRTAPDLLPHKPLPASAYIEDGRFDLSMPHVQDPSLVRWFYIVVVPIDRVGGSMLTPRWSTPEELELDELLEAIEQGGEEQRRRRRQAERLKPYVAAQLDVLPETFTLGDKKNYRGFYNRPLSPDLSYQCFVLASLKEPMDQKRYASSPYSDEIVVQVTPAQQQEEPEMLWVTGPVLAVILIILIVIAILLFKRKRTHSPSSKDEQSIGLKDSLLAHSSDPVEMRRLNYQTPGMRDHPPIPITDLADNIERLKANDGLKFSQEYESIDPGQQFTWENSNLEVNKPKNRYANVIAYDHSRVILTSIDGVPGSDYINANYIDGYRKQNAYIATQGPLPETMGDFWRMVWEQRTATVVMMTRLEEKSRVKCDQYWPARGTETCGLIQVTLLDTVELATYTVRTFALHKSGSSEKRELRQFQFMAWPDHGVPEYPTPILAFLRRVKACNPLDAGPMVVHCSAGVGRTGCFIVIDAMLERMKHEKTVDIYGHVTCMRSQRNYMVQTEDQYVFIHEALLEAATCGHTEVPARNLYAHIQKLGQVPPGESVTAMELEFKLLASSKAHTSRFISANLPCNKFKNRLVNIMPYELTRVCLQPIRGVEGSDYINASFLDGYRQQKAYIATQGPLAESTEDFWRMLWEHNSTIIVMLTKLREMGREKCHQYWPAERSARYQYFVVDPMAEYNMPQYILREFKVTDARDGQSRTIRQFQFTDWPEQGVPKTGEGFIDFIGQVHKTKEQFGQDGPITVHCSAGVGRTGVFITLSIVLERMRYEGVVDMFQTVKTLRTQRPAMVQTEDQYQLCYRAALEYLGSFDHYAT

[4] = target: T3, PTP1B(D181A) (Homo sapiens, UniProt P18031, D181A); experiment: PTP-1B (DA) binding assay: fluorescence polarization binding of fluorescein-labeled phosphotyrosyl peptides; conditions: Table 2; midpoint of bound/unbound transition (apparent Kd)
T3 construct: PTP1B proteins (wild type and mutant forms) comprising amino acids 1-321 were expressed in E. coli; made in house; host or cells: E. coli
T3 sequence (P18031 1-321 D181A): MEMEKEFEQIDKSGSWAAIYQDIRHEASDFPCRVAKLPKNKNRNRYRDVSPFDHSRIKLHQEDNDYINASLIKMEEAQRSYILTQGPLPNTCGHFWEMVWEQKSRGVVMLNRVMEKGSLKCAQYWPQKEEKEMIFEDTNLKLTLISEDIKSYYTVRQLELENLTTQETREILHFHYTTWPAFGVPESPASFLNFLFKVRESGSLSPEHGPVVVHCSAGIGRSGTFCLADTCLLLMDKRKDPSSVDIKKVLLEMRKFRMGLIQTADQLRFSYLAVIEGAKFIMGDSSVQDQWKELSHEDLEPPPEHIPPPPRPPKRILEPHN
Protocol: (§2) Two assay parameters were measured: (1) the dynamic range of the signal (i.e. the difference between polarization values of the bound and the unbound fluorescent substrate) and (2) the midpoint of the transition between bound and unbound that represents the apparent Kd (i.e. affinity) of each binding mutant for each peptide.
(§3) Assays were set up at room temperature in black polypropylene 96 well microtiter plates (Polyfiltronics, Whatman, U. K.) by the sequential addition of 40 μl of Assay Buffer, 40 μl of diluted binding protein and 40 μl of 0.3 nM fluorescein-labeled substrate peptide. After 15 min plates were read in a Criterion Analyst™ (LJL BioSystems, Inc., Sunnyvale, Calif.) in fluorescence polarization detection mode using the parameters listed as follows:
(§4) To obtain values for background fluorescence, assays were set up as above except the fluorescein-labeled substrate was replaced with Assay Buffer. To determine the fluorescence polarization values for the unbound substrate peptide, assays were set up as above except that the 40 μl of diluted binding protein was replaced with Assay Buffer.

[5] = target: T4, PTP1B(C215S) (Homo sapiens, UniProt P18031, C215S); experiment: PTP-1B (CS) binding assay: fluorescence polarization binding of fluorescein-labeled phosphotyrosyl peptides; conditions: Table 1; midpoint of bound/unbound transition (apparent Kd)
T4 construct: PTP1B proteins (wild type and mutant forms) comprising amino acids 1-321 were expressed in E. coli; made in house; host or cells: E. coli
T4 sequence (P18031 1-321 C215S): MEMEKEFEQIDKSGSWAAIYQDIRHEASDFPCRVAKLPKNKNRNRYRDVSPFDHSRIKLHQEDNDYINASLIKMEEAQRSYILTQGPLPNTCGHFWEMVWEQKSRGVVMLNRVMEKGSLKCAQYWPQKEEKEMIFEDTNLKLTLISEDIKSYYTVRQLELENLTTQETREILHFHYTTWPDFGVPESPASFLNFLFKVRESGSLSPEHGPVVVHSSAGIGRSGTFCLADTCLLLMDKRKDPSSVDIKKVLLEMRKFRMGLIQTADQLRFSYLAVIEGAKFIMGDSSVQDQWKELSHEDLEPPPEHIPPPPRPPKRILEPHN
Protocol: as §2, §3, §4

[6] = target: T5, CD45 (Homo sapiens, UniProt P08575); conditions: p56lck residues 500-509 peptide; read-out: Km toward CD45; cited from earlier work
T5 sequence (P08575 26-1306): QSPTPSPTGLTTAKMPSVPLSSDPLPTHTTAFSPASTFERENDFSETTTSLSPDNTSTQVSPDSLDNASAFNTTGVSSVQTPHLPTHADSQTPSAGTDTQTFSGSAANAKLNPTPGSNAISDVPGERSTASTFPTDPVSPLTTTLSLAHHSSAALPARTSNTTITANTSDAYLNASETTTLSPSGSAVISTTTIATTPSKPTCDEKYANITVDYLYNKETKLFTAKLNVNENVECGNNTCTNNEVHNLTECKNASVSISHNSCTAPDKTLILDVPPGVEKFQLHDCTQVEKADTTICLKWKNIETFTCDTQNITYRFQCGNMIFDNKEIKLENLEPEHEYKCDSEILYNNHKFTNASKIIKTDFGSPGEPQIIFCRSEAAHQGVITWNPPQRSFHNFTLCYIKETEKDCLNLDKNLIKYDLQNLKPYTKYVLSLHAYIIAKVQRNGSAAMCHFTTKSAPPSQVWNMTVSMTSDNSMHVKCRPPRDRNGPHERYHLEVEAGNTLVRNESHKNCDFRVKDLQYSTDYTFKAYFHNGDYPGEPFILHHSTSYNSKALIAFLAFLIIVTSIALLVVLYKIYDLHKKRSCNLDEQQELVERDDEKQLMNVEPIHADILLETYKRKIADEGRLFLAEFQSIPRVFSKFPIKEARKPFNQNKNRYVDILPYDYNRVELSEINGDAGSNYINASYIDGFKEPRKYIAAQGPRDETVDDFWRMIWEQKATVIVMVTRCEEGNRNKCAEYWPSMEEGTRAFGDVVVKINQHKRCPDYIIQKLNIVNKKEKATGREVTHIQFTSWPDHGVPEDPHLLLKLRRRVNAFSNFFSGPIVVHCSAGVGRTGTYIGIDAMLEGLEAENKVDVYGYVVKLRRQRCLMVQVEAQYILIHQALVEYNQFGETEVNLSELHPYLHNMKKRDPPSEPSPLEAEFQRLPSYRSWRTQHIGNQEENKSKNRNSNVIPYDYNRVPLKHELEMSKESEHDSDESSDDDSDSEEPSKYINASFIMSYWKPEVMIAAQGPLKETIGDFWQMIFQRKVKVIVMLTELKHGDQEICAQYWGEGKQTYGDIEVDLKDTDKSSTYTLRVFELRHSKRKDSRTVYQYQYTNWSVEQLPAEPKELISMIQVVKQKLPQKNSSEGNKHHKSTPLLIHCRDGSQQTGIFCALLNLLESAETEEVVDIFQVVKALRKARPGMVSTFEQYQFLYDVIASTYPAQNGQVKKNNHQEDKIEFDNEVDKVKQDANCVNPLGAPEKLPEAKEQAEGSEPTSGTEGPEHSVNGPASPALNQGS

[7] = target: fluorescein-labeled insulin receptor derived phosphopeptide T-R-D-I-pY-E-T-D-Y-Y-R (human); experiment: fluorescence polarization, mutant PTP titrated against fluorescein-labeled peptide in solution (midpoint = apparent Kd)
[8] = target: fluorescein-labeled EGF receptor derived phosphopeptide D-A-D-E-pY-L-NH2 (human); experiment: as above
[9] = target: fluorescein-labeled insulin receptor derived phosphopeptide T-R-D-I-pY-E-T-D-Y-Y-R (human); experiment: fluorescence polarization, mutant PTP titrated against fluorescein-labeled peptide in solution
[10] = target: fluorescein-labeled EGF receptor derived phosphopeptide D-A-D-E-pY-L-NH2 (human); experiment: as above

Question: With `N[C@@H](Cc1ccc(OP(=O)(O)O)cc1)C(=O)O` [P-Tyr, phosphotyrosine] as the molecule, how does the pIC50 [1] read?
Answer: 3.82

Question: And the pIC50 [2]?
Answer: 3.92

Question: Which Km [3] does the source give for `CC[C@H](C)[C@H](NC(=O)[C@H](CC(=O)O)NC(=O)[C@H](CCCNC(=N)N)NC(=O)[C@@H](NC(=O)c1ccc2c(c1)C(=O)OC21c2ccc(O)cc2Oc2cc(O)ccc21)[C@@H](C)O)C(=O)N[C@@H](Cc1ccc(OP(=O)(O)O)cc1)C(=O)N[C@@H](CCC(=O)O)C(=O)N[C@H](C(=O)N[C@@H](CC(=O)O)C(=O)N[C@@H](Cc1ccc(O)cc1)C(=O)N[C@@H](Cc1ccc(O)cc1)C(=O)N[C@@H](CCCNC(=N)N)C(=O)O)[C@@H](C)O` [F-IR-P, T-R-D-1-pY-E-T-D-Y-Y-R] here?
Answer: 27 µM

Question: And the pEC50 [4]?
Answer: 9.29

Question: And the pEC50 [5]?
Answer: 8.94

Question: For “A-T-E-G-Q-pY-Q-P-Q-P (ATEGQ[pY]QPQP; also: fluorescein label) [F-lck-P]”, which Km [6] is on record?
Answer: 130 µM

Question: What does the source list for “PTP1B(D181A), amino acids 1-321 (from UniProt P18031 1-321) (enzyme)”?
Answer: pEC50 [7]: 9.29; pEC50 [8]: 8.97; Peak Mp [9]: 132 mP; Peak Mp [10]: 269 mP

— patent US20070015231A1, “Assay for protein tyrosine phosphatases” (CEPTYR, Inc., priority 2000, published 2007)
